The values that follow come from PubChem BioAssay (NCI).

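Exposure lasted 48 hours, with cells grown in 96-well plates and compounds tested at five concentrations. TGI denotes the concentration required for complete inhibition of growth.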

The first assay concerns SF-539 CNS. Nature of the assay: NCI-60 cell line screen, 48 h.
`CC(C)OC(=O)c1ccc(NCc2cc(O)ccc2O)cc1Cl` came in with a TGI of 6.07 µM.

In another assay the test system is SK-MEL-2 melanoma. Nature of the assay: NCI-60 cell line screen, 48 h.
Consider `CCOP(=O)(OCC)/C(C#N)=C/c1ncc[nH]1`, for which the TGI was over 100 µM.

In turn, `Cc1csc2[n+]1C(=O)/C(=C\c1ccc([N+](=O)[O-])cc1)S2` gave a TGI of 63.3 µM.

`CC(C)OC(=O)c1ccc(NCc2cc(O)ccc2O)cc1Cl` displayed a TGI of over 55 µM.

The test system of another assay is SK-MEL-28 melanoma. Description: NCI-60 cell line screen, 48 h.
Take `CCOP(=O)(OCC)/C(C#N)=C/c1ncc[nH]1`: the TGI is over 100 µM.

`Cc1csc2c(=O)n(C3OC(CO)C(O)C3O)c(=O)[nH]c12` (centres undefined) had a TGI of over 100 µM.

In the case of `Cc1csc2[n+]1C(=O)/C(=C\c1ccc([N+](=O)[O-])cc1)S2`, the TGI was over 100 µM.

Consider `CC(C)OC(=O)c1ccc(NCc2cc(O)ccc2O)cc1Cl`, for which the TGI is 38.6 µM.

The subject of the next assay is SK-MEL-5 melanoma. Nature of the assay: NCI-60 cell line screen, 48 h.
For the molecule `CCOP(=O)(OCC)/C(C#N)=C/c1ncc[nH]1`, the TGI was over 100 µM.

As to `Cc1csc2c(=O)n(C3OC(CO)C(O)C3O)c(=O)[nH]c12` (centres undefined), the TGI was over 100 µM.

On to `Cc1csc2[n+]1C(=O)/C(=C\c1ccc([N+](=O)[O-])cc1)S2`, for which the TGI was found to be 55 µM.

Molecule `CC(C)OC(=O)c1ccc(NCc2cc(O)ccc2O)cc1Cl` gave a TGI of 11.1 µM.

For the next assay, the system named is SK-OV-3 ovarian. Nature of the assay: NCI-60 cell line screen, 48 h.
Molecule `CCOP(=O)(OCC)/C(C#N)=C/c1ncc[nH]1` came in with a TGI of over 100 µM.

In turn, `Cc1csc2[n+]1C(=O)/C(=C\c1ccc([N+](=O)[O-])cc1)S2` showed a TGI of 85.1 µM.

On to `CC(C)OC(=O)c1ccc(NCc2cc(O)ccc2O)cc1Cl`, for which the TGI is 49.2 µM.

The test system of the next assay is SN12C renal. Nature of the assay: NCI-60 cell line screen, 48 h.
Regarding `CCOP(=O)(OCC)/C(C#N)=C/c1ncc[nH]1`, the TGI is over 100 µM.

`Cc1csc2c(=O)n(C3OC(CO)C(O)C3O)c(=O)[nH]c12` (centres undefined) returned a TGI of over 100 µM.

`Cc1csc2[n+]1C(=O)/C(=C\c1ccc([N+](=O)[O-])cc1)S2` had a TGI of 99.3 µM.

With `CC(C)OC(=O)c1ccc(NCc2cc(O)ccc2O)cc1Cl`, the TGI was found to be 32.2 µM.

The test system of another assay is SNB-19 CNS. Nature of the assay: NCI-60 cell line screen, 48 h.
`CCOP(=O)(OCC)/C(C#N)=C/c1ncc[nH]1` came in with a TGI of over 100 µM.

`Cc1csc2c(=O)n(C3OC(CO)C(O)C3O)c(=O)[nH]c12` (centres undefined) showed a TGI of over 100 µM.

`Cc1csc2[n+]1C(=O)/C(=C\c1ccc([N+](=O)[O-])cc1)S2` displayed a TGI of 87.3 µM.

Turning to `CC(C)OC(=O)c1ccc(NCc2cc(O)ccc2O)cc1Cl`, the TGI is over 22.2 µM.

In another assay the test system is SNB-75 CNS. Nature of the assay: NCI-60 cell line screen, 48 h.
With `CCOP(=O)(OCC)/C(C#N)=C/c1ncc[nH]1`, the TGI was over 100 µM.

The molecule `Cc1csc2c(=O)n(C3OC(CO)C(O)C3O)c(=O)[nH]c12` (centres undefined) returned a TGI of over 100 µM.

Molecule `Cc1csc2[n+]1C(=O)/C(=C\c1ccc([N+](=O)[O-])cc1)S2` returned a TGI of 57.1 µM.

Take `CC(C)OC(=O)c1ccc(NCc2cc(O)ccc2O)cc1Cl`: the TGI was 31.1 µM.

In another assay the test system is SR leukemia. Nature of the assay: NCI-60 cell line screen, 48 h.
Consider `CCOP(=O)(OCC)/C(C#N)=C/c1ncc[nH]1`, for which the TGI is over 100 µM.

As for `Cc1csc2c(=O)n(C3OC(CO)C(O)C3O)c(=O)[nH]c12` (centres undefined), the TGI was over 100 µM.

Turning to `Cc1csc2[n+]1C(=O)/C(=C\c1ccc([N+](=O)[O-])cc1)S2`, the TGI was over 100 µM.

`CC(C)OC(=O)c1ccc(NCc2cc(O)ccc2O)cc1Cl`: the TGI is 8.6 µM.

In another assay the test system is SW-620 colon. Nature of the assay: NCI-60 cell line screen, 48 h.
For `CCOP(=O)(OCC)/C(C#N)=C/c1ncc[nH]1`, the TGI is over 100 µM.

In the case of `Cc1csc2c(=O)n(C3OC(CO)C(O)C3O)c(=O)[nH]c12` (centres undefined), the TGI is over 100 µM.

For the molecule `Cc1csc2[n+]1C(=O)/C(=C\c1ccc([N+](=O)[O-])cc1)S2`, the TGI is over 100 µM.

Regarding `CC(C)OC(=O)c1ccc(NCc2cc(O)ccc2O)cc1Cl`, the TGI is over 62.5 µM.

For the next assay, the system named is T-47D breast. Nature of the assay: NCI-60 cell line screen, 48 h.
In the case of `Cc1csc2[n+]1C(=O)/C(=C\c1ccc([N+](=O)[O-])cc1)S2`, the TGI turned out to be 65.5 µM.

A further assay deals with TK-10 renal. Description: NCI-60 cell line screen, 48 h.
In turn, `Cc1csc2c(=O)n(C3OC(CO)C(O)C3O)c(=O)[nH]c12` (centres undefined) came in with a TGI of over 100 µM.

On to `Cc1csc2[n+]1C(=O)/C(=C\c1ccc([N+](=O)[O-])cc1)S2`, for which the TGI was 58.8 µM.

Take `CC(C)OC(=O)c1ccc(NCc2cc(O)ccc2O)cc1Cl`: the TGI came out at 20.2 µM.

For another assay, the system named is U251 CNS. Nature of the assay: NCI-60 cell line screen, 48 h.
For `CCOP(=O)(OCC)/C(C#N)=C/c1ncc[nH]1`, the TGI was over 100 µM.

Take `Cc1csc2c(=O)n(C3OC(CO)C(O)C3O)c(=O)[nH]c12` (centres undefined): the TGI was over 100 µM.

Take `Cc1csc2[n+]1C(=O)/C(=C\c1ccc([N+](=O)[O-])cc1)S2`: the TGI came out at 45.7 µM.

Take `CC(C)OC(=O)c1ccc(NCc2cc(O)ccc2O)cc1Cl`: the TGI came to 24.6 µM.

A further assay concerns UACC-257 melanoma. Nature of the assay: NCI-60 cell line screen, 48 h.
As to `CCOP(=O)(OCC)/C(C#N)=C/c1ncc[nH]1`, the TGI is over 100 µM.

Take `Cc1csc2c(=O)n(C3OC(CO)C(O)C3O)c(=O)[nH]c12` (centres undefined): the TGI is over 100 µM.

In turn, `Cc1csc2[n+]1C(=O)/C(=C\c1ccc([N+](=O)[O-])cc1)S2` yielded a TGI of over 100 µM.

In turn, `CC(C)OC(=O)c1ccc(NCc2cc(O)ccc2O)cc1Cl` showed a TGI of 37.1 µM.

A further assay relates to UACC-62 melanoma. Nature of the assay: NCI-60 cell line screen, 48 h.
For the molecule `CCOP(=O)(OCC)/C(C#N)=C/c1ncc[nH]1`, the TGI is over 100 µM.

With `Cc1csc2[n+]1C(=O)/C(=C\c1ccc([N+](=O)[O-])cc1)S2`, the TGI was 41 µM.

`CC(C)OC(=O)c1ccc(NCc2cc(O)ccc2O)cc1Cl`: the TGI was determined as 18.6 µM.

Another assay has as its system UO-31 renal. Description: NCI-60 cell line screen, 48 h.
With `CCOP(=O)(OCC)/C(C#N)=C/c1ncc[nH]1`, the TGI is over 100 µM.

The molecule `Cc1csc2c(=O)n(C3OC(CO)C(O)C3O)c(=O)[nH]c12` (centres undefined) yielded a TGI of over 100 µM.

In the case of `Cc1csc2[n+]1C(=O)/C(=C\c1ccc([N+](=O)[O-])cc1)S2`, the TGI was found to be 39.3 µM.

In turn, `CC(C)OC(=O)c1ccc(NCc2cc(O)ccc2O)cc1Cl` returned a TGI of 2.38 µM.
